Test results reported in patent US20190083521A1, “COMBINATION THERAPY FOR TREATING CANCER” (Epizyme, Inc., priority 2014, published 2019).
Counter-ions that a name gives are not always drawn.

system: MOLM-13 (MLL-AF9) cells; experiment: Combination proliferation assay with Compound A2 (CellTiter-Glo, Chou-Talalay CI); assay type: cell-based, human; details: MOLM13; 7 Day Cotreatment Model
Description: (§1) The acute myelogenous leukemia cell lines MV4-11 (MLL-AF4) and MOLM-13 (MLL-AF9) were obtained from American Type Culture Collection (ATCC; Rockville, Md.) and Deutsche Sammlung von Mikroorganismen and Zellkulturen (DSMZ; Braunschweig, Germany) respectively.
(§2) Studies were performed using MLL-rearranged cell lines in vitro to evaluate the anti-proliferative effect of a combination of two agents together on cell growth. Initial proliferation studies were performed to determine the IC50 of a given compound in each cell line. The cell counts were measured by ATP quantitation using the Promega Cell Titer Glo kit and luminescence values corresponded to the amount of ATP in a given well.
(§3) Compounds were evaluated for synergy in the co-treatment phase by testing the compounds in a concentration range which was bracketed around their IC50 values. The compounds were plated to a 96 well plate in a matrix format (FIG. 3) which includes increasing concentrations of each drug in the combination in a constant ratio, in addition to the effect of each compound alone in the study. Cells were seeded and grown in the log-linear phase for 3 or 7 days in the co-treatment phase. Minimum inhibition (DMSO alone) controls were used in each plate to calculate fraction affected (Fa) of a test well. DMSO concentration was kept at 0.1% v/v.
(§4) The drug combination analysis was performed utilizing the Chou-Talalay method Synergy was determined using the software package Calcusyn by Biosoft. The combination index (CI) is a quantitative term used to describe the level of synergy or antagonism in a given test system. A combination index less than one indicates synergy, and a CI greater than one indicates antagonism. Further, strong synergism is achieved when the CI value falls below 0.3.
(§5) The HP-D300 digital dispenser (Tecan) was used to dispense compounds in a combinatorial matrix. […] Cell viability was measured via ATP content using CellTiter-Glo® (Promega).
(§6) Viability was determined using CellTiter-Glo® (Promega).
Cell viability was measured via ATP content using CellTiter-Glo® (Promega).
as §2, with “Proliferation studies” for “Studies”, “MOLM-13, MV4-11 and SKM-1” for “MLL-rearranged”, “cancer cell killing” for “anti-proliferative”, “IC50 values” for “IC50”, “correspond” for “corresponded”
(§7) These studies were performed to evaluate both the combinatorial effect of compounds on cell killing and the durability of the effect by washing out one of the agents.
(§8) Compounds evaluated for synergy in the co-treatment phase were tested in a range which was bracketed around the IC50's. The compounds were plated to a 96 well plate in a matrix format which includes increasing concentrations of each drug in the combination in a constant ratio, in addition to the effect of each compound alone in the study. Cells were seeded and grown in the log-linear phase for 3 or 7 days in the cotreatment phase. Maximum and minimum inhibition (DMSO alone) controls were used in each plate to calculate fraction affected (Fa) of a test well. DMSO concentration was kept at 0.1% v/v. The drug combination analysis was performed utilizing the Chou-Talalay method. Synergy was determined using the software package Calcusyn by Biosoft. The combination index (CI) is the term used to describe the level of synergy or antagonism in a given test system. A combination index less than one indicates synergy, and a CI greater than one indicates antagonism.
(§9) The drug combination analysis was performed using the Chou-Talalay method. Graphs representing values of combination index (CI) versus Fractional effect (Fa) known as Fa-CI plots were generated and synergy was evaluated.

Q: With `C[C@@H]1COCCN1c1cc(C2(S(C)(=O)=O)CC2)nc(-c2cccc3[nH]ccc23)n1` [AZ20] as the compound, how does the “Combination effect with Compound A2 (Table 5)” value (“Combination effect … (Table 5)” for short) read?
A: Its value is “Synergy (Drug synergy was statistically defined by CI values less than 1)”.

Q: How did the “Combination effect … (Table 5)” value turn out when `Cn1c(=O)n(-c2ccc(C(C)(C)C#N)cc2)c2c3cc(-c4cnc5ccccc5c4)ccc3ncc21` [BEZ235] was run?
A: The value was “Additive (additive effect by CI equal to 1)”.

Q: For `O=C(Nc1ccncc1)c1cc([N+](=O)[O-])ccc1Cl` [Compound T0070907], which “Combination effect … (Table 5)” value is on record?
A: Its value is “Additive (additive effect by CI equal to 1)”.

Q: How did the “Combination effect … (Table 5)” value turn out when `NC1(c2ccc(-c3nc4ccn5c(=O)[nH]nc5c4cc3-c3ccccc3)cc2)CCC1` [MK2206] was run?
A: Its value is “Additive (additive effect by CI equal to 1)”.

same assay, conditions: MOLM-13 (MLL-AF9); 7 Day Cotreatment Model

Q: Which “Combination effect with Compound A2 (Table 4)” value (“Combination effect … (Table 4)” for short) does the source give for `CC1(C)CCC(CN2CCN(c3ccc(C(=O)NS(=O)(=O)c4ccc(NCC5CCOCC5)c([N+](=O)[O-])c4)c(Oc4cnc5[nH]ccc5c4)c3)CC2)=C(c2ccc(Cl)cc2)C1` [ABT-199] here?
A: The value was “Additive--> Synergy”.

Q: With `Nc1cccc2c1CN(C1CCC(=O)NC1=O)C2=O` (stereo not shown) [Lenalidomide] as the compound, how does the “Combination effect … (Table 4)” value read?
A: The value was “Combination Benefit”.

Q: For `S=c1nc[nH]c2nc[nH]c12` [Mercaptopurine], which “Combination effect … (Table 4)” value is on record?
A: The value was “Additive--> Synergy”.

Q: For `CC(C)C[C@H](NC(=O)[C@H](Cc1ccccc1)NC(=O)c1cnccn1)B(O)O` [Velcade, bortezomib], which “Combination effect … (Table 4)” value is on record?
A: Its value is “Combination Benefit”.

Q: With `O=C(CCCCCCC(=O)Nc1ccccc1)NO` [Vorinostat] as the compound, how does the “Combination effect … (Table 4)” value read?
A: The value was “Additive/Synergy”.

system: MV4-11 (MLL-AF4) cells; experiment: as above; assay type: cell-based, human; details: MV4-11; 7 Day Cotreatment (Example 1)
Description: as §1, §2, §3, §4, §5, §6
as §2, with “Proliferation studies” for “Studies”, “MOLM-13, MV4-11 and SKM-1” for “MLL-rearranged”, “cancer cell killing” for “anti-proliferative”, “IC50 values” for “IC50”, “correspond” for “corresponded”
as §7, §8
as §9, with “evaluated. Drug synergy was statistically defined by CI values less than 1, antagonism by CI>1 and additive effect by CI equal to 1.” for “evaluated.”

Q: Which “Combination effect with Compound A2” value does the source give for `O=C1c2c(O)ccc(O)c2C(=O)c2c(NCCNCCO)ccc(NCCNCCO)c21` [Mitoxantrone] here?
A: Its value is “Synergy (A combination index less than one indicates synergy)”.

Q: `CC(C)(C)c1cc(NC(=O)Nc2ccc(-c3cn4c(n3)sc3cc(OCCN5CCOCC5)ccc34)cc2)no1` [Quizartinib] was tested. Which “Combination effect with Compound A2” value did it give?
A: The value was “synergy”.

system: SKM-1 cells; experiment: Example 6 combination screen: 300 nM EPZ-5676 pre-treatment, second compound 72 h, ATPLite, IC50 shift; assay type: cell-based, human; details: not given
Description: Cells were then equilibrated in incubators for 24 hours before treatment with a second compound. Treated assay plates were incubated with a second compound for 72 hours. After this time, plates were developed for endpoint analysis using ATPLite to measure ATP content, which is used as an indicator of cell viability.
“N/D” means that IC50 of the second compound could not be determined for both conditions.

Q: With Arsenic Trioxide as the compound, how does the “Summary of Combination Studies: SKM-1” value read?
A: The value was 2.0.

same assay, conditions: SKM-1 cells; 300 nM EPZ-5676 pre-treatment (4 + 3 days) vs DMSO, then 2nd compound 72 h; ATPLite; IC50 shift of 2nd compound

Q: With `CN(C)CC[C@H](CSc1ccccc1)Nc1ccc(S(=O)(=O)NC(=O)c2ccc(N3CCN(Cc4ccccc4-c4ccc(Cl)cc4)CC3)cc2)cc1[N+](=O)[O-]` [ABT-737] as the compound, how does the “Summary of Combination Studies: SKM-1” value read?
A: The value was “Synergy (considered synergistic if the IC50 value of the second compound decreased by 2-fold or more when EPZ-5676 was added as compared to the DMSO control)”.

Q: With `COc1ccc(-c2ccc3c(N4CCOC[C@@H]4C)nc(N4CCOC[C@@H]4C)nc3n2)cc1CO` [AZD 8055] as the compound, how does the “Summary of Combination Studies: SKM-1” value read?
A: Its value is “Synergy (considered synergistic if the IC50 value of the second compound decreased by 2-fold or more when EPZ-5676 was added as compared to the DMSO control)”.

Q: Which “Summary of Combination Studies: SKM-1” value does the source give for `O=C(Nc1cccc(Nc2ncc(Br)c(NCCc3cnc[nH]3)n2)c1)N1CCCC1` [BX-912] here?
A: Its value is “Synergy (considered synergistic if the IC50 value of the second compound decreased by 2-fold or more when EPZ-5676 was added as compared to the DMSO control)”.

Q: With `C=C(c1ccc(C(=O)O)cc1)c1cc2c(cc1C)C(C)(C)CCC2(C)C` [Bexarotene] as the compound, how does the “Summary of Combination Studies: SKM-1” value read?
A: Its value is “Synergy (considered synergistic if the IC50 value of the second compound decreased by 2-fold or more when EPZ-5676 was added as compared to the DMSO control)”.

Q: `COCc1c(C(C)C)nc(C(C)C)c(/C=C/[C@@H](O)C[C@@H](O)CC(=O)O)c1-c1ccc(F)cc1` [Cerivastatin Sodium] was tested. Which “Summary of Combination Studies: SKM-1” value did it give?
A: Its value is “Synergy (considered synergistic if the IC50 value of the second compound decreased by 2-fold or more when EPZ-5676 was added as compared to the DMSO control)”.

Q: `C#Cc1cccc(Nc2ncnc3cc(OCCOC)c(OCCOC)cc23)c1` [Erlotinib Hydrochloride] was tested. Which “Summary of Combination Studies: SKM-1” value did it give?
A: The value was “Synergy (considered synergistic if the IC50 value of the second compound decreased by 2-fold or more when EPZ-5676 was added as compared to the DMSO control)”.

Q: Which “Summary of Combination Studies: SKM-1” value does the source give for `CS(=O)(=O)N1CCN(Cc2cc3nc(-c4cccc5[nH]ncc45)nc(N4CCOCC4)c3s2)CC1` [GDC-0941] here?
A: The value was “Synergy (considered synergistic if the IC50 value of the second compound decreased by 2-fold or more when EPZ-5676 was added as compared to the DMSO control)”.

Q: Which “Summary of Combination Studies: SKM-1” value does the source give for `N#Cc1c(C2CCNCC2)cc(-c2c(O)cccc2OCC2CC2)nc1N` [IKK-2 Inhibitor VIII] here?
A: The value was “Synergy (considered synergistic if the IC50 value of the second compound decreased by 2-fold or more when EPZ-5676 was added as compared to the DMSO control)”.

Q: For `CN(C)C(=O)c1cc2cnc(Nc3ccc(N4CCNCC4)cn3)nc2n1C1CCCC1` [LEE011], which “Summary of Combination Studies: SKM-1” value is on record?
A: Its value is “Synergy (considered synergistic if the IC50 value of the second compound decreased by 2-fold or more when EPZ-5676 was added as compared to the DMSO control)”.

Q: Which “Summary of Combination Studies: SKM-1” value does the source give for `NC1(c2ccc(-c3nc4ccn5c(=O)[nH]nc5c4cc3-c3ccccc3)cc2)CCC1` [MK2206] here?
A: Its value is “Synergy (considered synergistic if the IC50 value of the second compound decreased by 2-fold or more when EPZ-5676 was added as compared to the DMSO control)”.

Q: For `CC(C)C[C@H](NC(=O)CNC(=O)c1cc(Cl)ccc1Cl)B(O)O` [MLN2238], which “Summary of Combination Studies: SKM-1” value is on record?
A: The value was “Synergy (considered synergistic if the IC50 value of the second compound decreased by 2-fold or more when EPZ-5676 was added as compared to the DMSO control)”.

Q: How did the “Summary of Combination Studies: SKM-1” value turn out when `C[C@H]1C[C@@H]2[C@H]([C@@H](O)C[C@@]3(C)[C@H]2CC[C@]3(O)C(=O)CO)[C@@]2(C)C=CC(=O)C=C12` [Methylprednisolone] was run?
A: Its value is “Synergy (considered synergistic if the IC50 value of the second compound decreased by 2-fold or more when EPZ-5676 was added as compared to the DMSO control)”.

Q: How did the “Summary of Combination Studies: SKM-1” value turn out when `C=C[C@@]1(C)CC(=O)[C@]2(O)[C@@]3(C)[C@@H](O)CCC(C)(C)[C@@H]3[C@H](OC(=O)CCN(C)C)[C@H](OC(C)=O)[C@@]2(C)O1.Cl` [NKH 477] was run?
A: The value was “Synergy (considered synergistic if the IC50 value of the second compound decreased by 2-fold or more when EPZ-5676 was added as compared to the DMSO control)”.

Q: For `Cc1sc2c(c1C)C(c1ccc(Cl)cc1)=N[C@@H](CC(=O)Nc1ccc(O)cc1)c1nnc(C)n1-2` [OTX015], which “Summary of Combination Studies: SKM-1” value is on record?
A: The value was “Synergy (considered synergistic if the IC50 value of the second compound decreased by 2-fold or more when EPZ-5676 was added as compared to the DMSO control)”.

Q: Which “Summary of Combination Studies: SKM-1” value does the source give for `CC(C)CC(=O)Nc1[nH]nc2c1CN(C(=O)C1CCN(C)CC1)C2(C)C` [PHA-793887] here?
A: The value was “Synergy (considered synergistic if the IC50 value of the second compound decreased by 2-fold or more when EPZ-5676 was added as compared to the DMSO control)”.

Q: Which “Summary of Combination Studies: SKM-1” value does the source give for `COc1ccc(Cc2nccc3cc(OC)c(OC)cc23)cc1OC` [Papaverine Hydrochloride] here?
A: The value was “Synergy (considered synergistic if the IC50 value of the second compound decreased by 2-fold or more when EPZ-5676 was added as compared to the DMSO control)”.

Q: For `COc1ccc(CCc2nc3cc(-c4c(C)noc4C)ccc3n2C[C@H](C)N2CCOCC2)cc1Cl` [SGC-CBP30], which “Summary of Combination Studies: SKM-1” value is on record?
A: Its value is “Synergy (considered synergistic if the IC50 value of the second compound decreased by 2-fold or more when EPZ-5676 was added as compared to the DMSO control)”.

Q: `CCN(CC)CCNC(=O)c1c(C)[nH]c(/C=C2\C(=O)Nc3ccc(F)cc32)c1C` [Sunitinib Malate] was tested. Which “Summary of Combination Studies: SKM-1” value did it give?
A: Its value is 2.0.

Q: How did the “Summary of Combination Studies: SKM-1” value turn out when `CC1=C(/C=C/C(C)=C/C=C/C(C)=C/C(=O)O)C(C)(C)CCC1` [Tretinoin] was run?
A: The value was “Synergy (considered synergistic if the IC50 value of the second compound decreased by 2-fold or more when EPZ-5676 was added as compared to the DMSO control)”.
